Our source for the carcinogen call values is PubChem BioAssay AID1259411 (Chemical Carcinogenesis Research Information System (CCRIS), 2018).

For the data set, the system named is rodent carcinogenicity bioassays, tumor incidence. Description: CCRIS carcinogenicity studies. The note with it: Dose: 0. Summed up:
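NCI-built, expert-reviewed records of carcinogenicity and related test outcomes (mutagenicity, tumor promotion/inhibition) compiled from published and report sources, historical span 1985-2011, not updated.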

SMILES strings stand for the structures. Activity calls are given as the source filed them. The rule behind the calls is not given here.

On to `COc1ccc([N+](=O)[O-])cc1N`, for which the carcinogen call (Species: MOUSE, Strain/Sex: B6C3F1/FEMALE, Route: ORAL, 0.8% IN DIET FOR 78 WK (STUDY DURATION: 97 WK)) was “inactive; negative”; the carcinogen call (Species: MOUSE, Strain/Sex: B6C3F1/FEMALE, Route: ORAL, 1.6% IN DIET FOR 15 WK FOLLOWING BY 0.4% FOR LAST 63 WK (STUDY DURATION: 97 WK), Tumor Site: Type of Lesion: LIVER: HEPATOCELLULAR CARCINOMA) was “active; positive”; the carcinogen call (Species: MOUSE, Strain/Sex: B6C3F1/MALE, Route: ORAL, 0.8% IN DIET FOR 78 WK (STUDY DURATION: 97 WK), Tumor Site: Type of Lesion: LIVER: HEPATOCELLULAR CARCINOMA) was “equivocal”; the carcinogen call (Species: MOUSE, Strain/Sex: B6C3F1/MALE, Route: ORAL, 1.6% IN DIET FOR FIRST 15 WK FOLLOWING BY 0.4% FOR 63 WK (STUDY DURATION: 97 WK)) is “inactive; negative”; the carcinogen call (Species: RAT, Strain/Sex: F344/FEMALE, Route: ORAL, 0.4, 0.8% IN DIET FOR 78 WK (STUDY DURATION: 106-108 WK), 0.4, 0.8% IN DIET FOR 78 WK (STUDY DURATION: 106-108 WK), Tumor Site: Type of Lesion: CLITORAL GLAND: CARCINOMA (NOS), CARCINOMA (NOS) OR SQUAMOUS CELL CARCINOMA, ADENOMA (NOS) OR PAPILLARY ADENOMA OR CARCI) was “active; positive”; the carcinogen call (Species: RAT, Strain/Sex: F344/MALE, Route: ORAL, 0.4, 0.8% IN DIET FOR 78 WK (STUDY DURATION: 102-109 WK), 0.4, 0.8% IN DIET FOR 78 WK (STUDY DURATION: 102-109 WK), Tumor Site: Type of Lesion: INTEGUMENTARY SYSTEM (SKIN): BASAL CELL CARCINOMA, TRICHOEPITHELIOMA;INTEGUMENTARY SYSTEM (EXCLUDING SKIN OF EAR): SQUAM) was “active; positive”.
Turning to `Cc1ccc(Nc2ccc(O)c3c2C(=O)c2ccccc2C3=O)cc1`, the carcinogen call by setting is: (Species: MOUSE, Strain/Sex: SWISS-WEBSTER/FEMALE, Route: DERMAL, 1% IN 0.1 ML 0.1% SODIUM LAURYL SULFATE 1/WK FOR 18 MO (STUDY DURATION: 18 MO)) “inactive; negative”; (Species: MOUSE, Strain/Sex: SWISS-WEBSTER/MALE, Route: DERMAL, 1% IN 0.1 ML 0.1% SODIUM LAURYL SULFATE 1/WK FOR 18 MO (STUDY DURATION: 18 MO)) “inactive; negative”.
For the compound `Clc1cnc(Oc2ccc(Oc3ncc(Cl)cc3Cl)cc2)c(Cl)c1`, the carcinogen call by setting is: (Species: MOUSE, Strain/Sex: C57BL/MALE, Route: INTRAGASTRIC, 3 MG/KG BW IN CORN OIL 1/2 WK FOR 24 WK (STUDY DURATION: 55 WK), Tumor Site: Type of Lesion: LIVER: HEPATOCELLULAR ADENOMA OR CARCINOMA) “active; positive”; (Species: MOUSE, Strain/Sex: C57BL/MALE, Route: INTRAPERITONEAL, 3 MG/KG BW IN CORN OIL 1/2 WK FOR 24 WK (STUDY DURATION: 55 WK), Tumor Site: Type of Lesion: LIVER: HEPATOCELLULAR ADENOMA OR CARCINOMA) “active; positive”; (Species: MOUSE, Strain/Sex: DBA/MALE, Route: INTRAGASTRIC, 3 MG/KG BW IN CORN OIL 1/2 WK FOR 24 WK (STUDY DURATION: 55 WK)) “active; positive”; (Species: MOUSE, Strain/Sex: DBA/MALE, Route: INTRAPERITONEAL, 3 MG/KG BW IN CORN OIL 1/2 WK FOR 24 WK (STUDY DURATION: 55 WK), Tumor Site: Type of Lesion: LIVER: HEPATOCELLULAR ADENOMA OR CARCINOMA) “active; positive”; (Species: RAT, Strain/Sex: F344/MALE, Route: INTRAGASTRIC, 30 MG/KG IN CORN OIL 1/2 WK FOR 71 WK (STUDY DURATION: 73 WK)) “inactive; negative”; (Species: RAT, Strain/Sex: F344/MALE, Route: INTRAPERITONEAL, 30 MG/KG IN CORN OIL 1/2 WK FOR 71 WK (STUDY DURATION: 73 WK)) “inactive; negative”.
Regarding `COc1ccc(CCN2CCC(Nc3nc4ccccc4n3Cc3ccc(F)cc3)CC2)cc1`, the carcinogen call (Species: MOUSE, Strain/Sex: SWISS/FEMALE, Route: ORAL, 2.5, 10, 40 MG/100 G OF DIET FOR DURATION OF STUDY (STUDY DURATION: 18 Mo), 2.5, 10, 40 MG/100 G OF DIET FOR DURATION OF STUDY (STUDY DURATION: 18 Mo)) is “inactive; negative”; the carcinogen call (Species: MOUSE, Strain/Sex: SWISS/MALE, Route: ORAL, 2.5, 10, 40 MG/100 G OF DIET FOR DURATION OF STUDY (STUDY DURATION: 18 MO), 2.5, 10, 40 MG/100 G OF DIET FOR DURATION OF STUDY (STUDY DURATION: 18 MO)) is “inactive; negative”; the carcinogen call (Species: RAT, Strain/Sex: WISTAR/FEMALE, Route: ORAL, 5, 20, 80 MG/100 G OF DIET FOR DURATION OF STUDY (STUDY DURATION: 2 YR), 5, 20, 80 MG/100 G OF DIET FOR DURATION OF STUDY (STUDY DURATION: 2 YR)) was “inactive; negative”; the carcinogen call (Species: RAT, Strain/Sex: WISTAR/MALE, Route: ORAL, 5, 20, 80 MG/100 G OF DIET FOR DURATION OF STUDY (STUDY DURATION: 2 YR), 5, 20, 80 MG/100 G OF DIET FOR DURATION OF STUDY (STUDY DURATION: 2 YR)) is “inactive; negative”.
With `O=C1C=CC(=O)C(c2ccccc2)=C1`, the carcinogen call (Species: MOUSE, Strain/Sex: CD-1/FEMALE, Route: DERMAL, 1 MG IN DMSO 5/D WK FOR 40 WK (STUDY DURATION: 40 WK)) is “inactive; negative” and the carcinogen call (Species: RAT, Strain/Sex: F344/FEMALE, Route: INTRAVESICULAR, 1% IN 0.2 ML SALINE 2/WK FOR 5 WK (STUDY DURATION: 36 WK)) was “inactive; negative”.
As to `CCN=c1cc2oc3cc(NCC)c(C)cc3c(-c3ccccc3C(=O)OCC)c-2cc1C`, the carcinogen call (Species: MOUSE, Strain/Sex: B6C3F1/FEMALE, Route: ORAL, 500, 1000 PPM IN FEED FOR 103 WK (STUDY DURATION: 105 WK), 500, 1000 PPM IN FEED FOR 103 WK (STUDY DURATION: 105 WK)) is “inactive; negative”; the carcinogen call (Species: MOUSE, Strain/Sex: B6C3F1/MALE, Route: ORAL, 1000, 2000 PPM IN FEED FOR 103 WK (STUDY DURATION: 105 WK), 1000, 2000 PPM IN FEED FOR 103 WK (STUDY DURATION: 105 WK)) was “inactive; negative”; the carcinogen call (Species: RAT, Strain/Sex: F344/FEMALE, Route: ORAL, 120, 250 PPM IN FEED FOR 103 WK (STUDY DURATION: 105 WK), 120, 250 PPM IN FEED FOR 103 WK (STUDY DURATION: 105 WK), Tumor Site: Type of Lesion: ADRENAL GLAND: PHEOCHROMOCYTOMA OR MALIGNANT PHEOCHROMOCYTOMA) is recorded as “equivocal”; the carcinogen call (Species: RAT, Strain/Sex: F344/MALE, Route: ORAL, 120, 250 PPM IN FEED FOR 103 WK (STUDY DURATION: 105 WK), 120, 250 PPM IN FEED FOR 103 WK (STUDY DURATION: 105 WK), Tumor Site: Type of Lesion: INTEGUMENTARY SYSTEM: KERATOACANTHOMA) is “equivocal”.
With `OC[C@@H](O)[C@@H](O)CO`, the carcinogen call (Species: DOG, Strain/Sex: BEAGLE/FEMALE, Route: ORAL, 2, 5, 10% IN DIET FOR 53 WK (STUDY DURATION: 53 WK), 2, 5, 10% IN DIET FOR 53 WK (STUDY DURATION: 53 WK)) is “inactive; negative”; the carcinogen call (Species: DOG, Strain/Sex: BEAGLE/MALE, Route: ORAL, 2, 5, 10% IN DIET FOR 53 WK (STUDY DURATION: 53 WK), 2, 5, 10% IN DIET FOR 53 WK (STUDY DURATION: 53 WK)) is “inactive; negative”; the carcinogen call (Species: RAT, Strain/Sex: WISTAR/FEMALE, Route: ORAL, 2, 5, 10% IN DIET FOR 104 WK (STUDY DURATION: 104 WK), 2, 5, 10% IN DIET FOR 104 WK (STUDY DURATION: 104 WK)) was “inactive; negative”; the carcinogen call (Species: RAT, Strain/Sex: WISTAR/MALE, Route: ORAL, 2, 5, 10% IN DIET FOR 104 WK (STUDY DURATION: 104 WK), 2, 5, 10% IN DIET FOR 104 WK (STUDY DURATION: 104 WK)) was “inactive; negative”.
